Experimental data from patent US20200378950A1, “Glycosylation site-specific antibodies and anti-cancer compounds” (Detroit R & D, Inc., priority 2019, published 2020).

What was measured:
[1] = test system: O-GlcNAcylated c-myc in MCF-7 cells; assay: Western blot of O-GlcNAcylated c-myc levels in treated MCF-7 cells; assay type: cell-based; conditions: MCF-7, 24 hr treatment, 2 mM, nuclear lysates
Experimental: MCF-7 cells were grown in MEM/EBSS media (Hyclone, Logan, Utah) supplemented with 10% fetal bovine serum and 0.01 mg/mL insulin. MCF-10A cells were grown in DMEM/F12 media (Hyclone) supplemented with 5% horse serum, […], […], 20 ng/mL EGF, […], 100 units/mL penicillin-streptomycin and 2 mM glutamine. The glucose concentration of MEM/EBSS and DMEM/F12 media are 6 mM and 18 mM, respectively. Cells were maintained in humidified atmosphere with 95% air and 5% CO2 at 37° C.
MCF-7 breast cancer cells were treated for 24 hr with 1% DMSO, with an O-GlcNAcase inhibitor, streptozotocin (STZ), with N^6-methyladenosine 5′-monophosphate [an O-GlcNAcase inhibitor discovered through by screening with the pseudofluorescent substrate 4-methylumbelliferol (4-MU)-GlcNAc (7)] or with media (control) (FIG. 5).
O-GlcNAcase inhibitors, which increased O-GlcNAcylation levels of proteins by preventing cleavage of an O-GlcNAc moiety of Ser or Thr residues, were identified using the antibodies of the present invention. […]
MCF-7 cells were treated for 4 hr with 1% DMSO (negative control) or 2 mM ketoconazole in DMSO and an O-GlcNAcylated c-myc band was detected using a second antibody for O-GlcNAcylated c-myc (Peptide #1-G).

[2] = test system: O-GlcNAcylated p53 in MCF-7 cells; assay: Western blot of O-GlcNAcylated p53 levels in treated MCF-7 cells; assay type: cell-based; conditions: MCF-7, 24 hr, 2 mM, cytosol-containing supernatants
Experimental: MCF-7 cells were grown in MEM/EBSS media (Hyclone, Logan, Utah) supplemented with 10% fetal bovine serum and 0.01 mg/mL insulin. […] The glucose concentration of MEM/EBSS and DMEM/F12 media are 6 mM and 18 mM, respectively. Cells were maintained in humidified atmosphere with 95% air and 5% CO2 at 37° C.
MCF-7 cells were grown for 24 hr with treatment of 1% DMSO (negative control) or 2 mM STZ or acetazolamide dissolved in DMSO or 2 mM N^6-methyladenosine 5′-monophosphate dissolved in media. The cells were harvested and cytosol-containing supernatants were obtained.

[3] = test system: unmodified c-myc in MCF-7 cells; assay: Western blot of unmodified c-myc protein in treated MCF-7 cells; assay type: cell-based; conditions: MCF-7, 4 hr, 2 mM, Peptide #2-N antibody
Experimental: Western blot analysis was carried out with 10% gel electrophoresis using nuclear lysates obtained from MCF-7 cells with antibodies for O-GlcNAcylated c-myc (Peptide #2-G). […] There was no increase in unmodified c-myc protein after ketoconazole treatment as verified with antibodies for unmodified c-myc (Peptide #2-N) by Western blot analysis.

MCF-7 and MCF10A cells = assay: Lactate dehydrogenase (LDH) cytotoxicity assay, MCF-7 compared with MCF10A; assay type: cell-based; conditions: 2 mM, 4 hr
Experimental: Increased O-GlcNAcylated c-myc levels in MCF-7 cells induced cell death. MCF-7 tumor cell death after 2 mM ketoconazole treatment was compared with MCF10A normal cell death by LDH cytotoxicity assay. After treatment of cells for 4 hr, extracellular media and Triton X-100 solubilized cells were obtained and oxidation of NADH to NAD+ in both fractions was monitored for 2 min at a 340 nm to obtain total (media+cells) LDH release.

[4] = test system: MCF-7 breast cancer cells; assay: Cell proliferation, MCF-7; assay type: cell-based
Experimental: Cell proliferation assays were carried out after seeding 3,000-5,000 cells in a 96-well plate with and without treatment of 50 μM ketoconazole dissolved in DMSO (final concentration, 1%) for 72 hr (FIG. 8, Panel A). The cell number was counted after staining the cells with 3-(4,5-dimethylthiazol-2-yl)2,5-diphenyl-tetrazolium bromide (MTT).

[5] = test system: MCF10CA1A breast cancer cells; assay: QCM ECMatrix cell invasion assay, MCF10CA1A; assay type: cell-based; conditions: MCF-10CA1A, 100 μM for 72 hr
Experimental: Cell invasiveness of SW480 and HT29 human colon adenocarcinoma cells and MCF10CA1A breast cancer cells with and without 72 hr treatment with 100 μM ketoconazole was studied in 24-well plates using the QCM ECMatrix cell invasion assay kit (EMD Millipore).

[6] = test system: Mia Paca-2 pancreatic cancer cells; assay: Wound healing (cell migration) assay, Mia Paca-2; assay type: cell-based; conditions: Mia Paca-2, 100 μM
Experimental: (§1) Wound healing assays were also carried out to verify inhibition of cell migration after ketoconazole treatment.
(§2) Wound healing assays to measure inhibition of cell migration toward scratched area with and without treatment of 100 μM ketoconazole dissolved in DMSO (final concentration, 1%). Percent of cells migrated toward a scratched field are shown. […] Percent of cells migrated toward a scratched field are shown.

[7] = test system: PANC1 pancreatic cancer cells; assay: Wound healing (cell migration) assay, PANC1; assay type: cell-based; conditions: PANC1, 100 μM
Experimental: as §1, §2

SW480 colon cancer cells = assay: Wound healing (cell migration) assay, SW480; assay type: cell-based, human; conditions: SW480, 100 μM
Experimental: as §2

HT29 colon cancer cells = assay: Wound healing (cell migration) assay, HT29; assay type: cell-based, human; conditions: HT29, 100 μM
Experimental: as §2

| SMILES | O-GlcNAcylated c-myc levels [1] | Levels of O-GlcNAcylated p53 [2] | unmodified c-myc protein level [3] | cell death in MCF-7 cells higher than in MCF10A cells (LDH release) (MCF-7 and MCF10A cells) [%] | inhibition of cell proliferation [4] | inhibition of migration in cell invasion assay [5] | % cells migrated ([6]; 0 hr) [%] | % cells migrated ([6]; 24 hr) [%] | % cells migrated ([6]; 24 hr, listed as Ketoconazole) [%] | % cells migrated ([6]; 48 hr) [%] | % cells migrated ([7]; 0 hr) [%] | % cells migrated ([7]; 24 hr) [%] | % cells migrated ([7]; 48 hr) [%] | inhibition of cell migration ([7]; wound healing) | Percent of cells migrated (SW480 colon cancer cells; 0 hr) | inhibition of cell migration (SW480 colon cancer cells; 24 hours) | Percent of cells migrated (SW480 colon cancer cells; 24 hr) | Percent of cells migrated (HT29 colon cancer cells; 0 hr) | inhibition of cell migration (HT29 colon cancer cells; 24 hours) | Percent of cells migrated (HT29 colon cancer cells; 24 hr) |
| --- | --- | --- | --- | --- | --- | --- | --- | --- | --- | --- | --- | --- | --- | --- | --- | --- | --- | --- | --- | --- |
| CC(=O)Nc1nnc(S(N)(=O)=O)s1 [acetazolamide] | did not increase | potent inducer | – | – | – | – | – | – | – | – | – | – | – | – | – | – | – | – | – | – |
| CC(=O)N1CCN(c2ccc(OCC3COC(Cn4ccnc4)(c4ccc(Cl)cc4Cl)O3)cc2)CC1 (centres unmarked) [ketoconazole] | – | – | no increase | 84 | inhibited the proliferation | partially inhibited | 0 | 11.6 | 10 | 12 | 0 | 6 | 11 | failed to inhibit | 0 | slightly inhibited | 27 | 0 | slightly inhibited | 8 |
